Structures are written as SMILES. Values after ≈ are worked out from the molar mass of the structure shown.

We go through one molecule from EPA's ToxValDB 9.5 (doi:10.2903/j.efsa.2010.1554).

In one data set the test system is Anas platyrhynchos. Particulars: for LD50: oral, mortality.
For a further data set, the system named is Colinus virginianus. Particulars: acute, oral, mortality.
Another data set concerns Rattus norvegicus. Particulars: for NOAEL: reproduction developmental.
The test system of the next data set is Canidae. Particulars: chronic; duration: 1 years; oral; Dog Other; organ weight.
The next data set deals with Daphnia magna. Particulars: chronic/long-term; duration: 21 days; reproduction.
The test system of a further data set is Apis mellifera. Particulars: acute; duration: 48 hours; dermal; mortality.

Regarding `COc1cc(OC)nc(NC(=O)NS(=O)(=O)c2c(-c3nnn(C)n3)cnn2C)n1` [Azimsulfuron], the LD50 in the data set on Anas platyrhynchos (acute, unspecified) is over 2250 mg/kg-day; with Anas platyrhynchos (short-term, feed), over 2040 mg/kg-day; with Colinus virginianus (diet) it was over 3150 mg/kg-day; in the data set with Colinus virginianus, over 2250 mg/kg-day; with Rattus norvegicus (acute, oral, mortality), over 5000 mg/kg-day; with Apis mellifera it was over 25 µg/piece. Besides, the NOEL in the data set with Anas platyrhynchos (reproductive) came out at 172 mg/kg-day. For the same molecule, the LC50 with Oncorhynchus mykiss (acute, duration: 96 hours, mortality) is 154 µg/mL (≈ 363 µM); with Tagia sp. (acute, duration: 14 days, mortality) it was over 1000 mg/kg. Also, the NOEC in the data set with Oncorhynchus mykiss (chronic/long-term, duration: 90 days, time to hatch) amounted to 6.3 mg/L; in the data set on Daphnia magna, 5.4 mg/L; with Tagia sp. (chronic/long-term, duration: 56 days, reproduction), 12.5 mg/kg. The figures for the NOAEL in the data set with Rattus norvegicus (organ weight), in the data set on Rattus norvegicus (reproduction) and in the data set with Canidae were 9.6 mg/kg-day, 76.6 mg/kg-day and 17.9 mg/kg-day, respectively.
